# According to a melting point compilation (Tetko et al.):
# Settings: a range is the spread between reports
row,SMILES,melting point
1,O=C(O)c1ccc([N+](=O)[O-])c([N+](=O)[O-])c1,165 to 166 °C
2,c1ccc2c(c1)-c1cccc3c1c-2cc1ccccc13,164 to 168 °C
3,COc1cc(NS(=O)(=O)c2ccc(N)cc2)nc(OC)n1,204 °C
4,Cn1nnc2ccccc21,64.5 to 65 °C
5,O=S(=O)(Cl)c1ccccc1,14.5 to 15 °C
6,O=[N+]([O-])c1cccc2cccnc12,88 to 90 °C
7,CCOC(=O)c1ccccc1N,13 to 15 °C
8,COc1cc(C(=O)O)ccc1O,212 to 214 °C
9,Cc1cccc([N+](=O)[O-])c1,15.5 to 16 °C
10,NC(=S)c1c(Cl)cccc1Cl,151 to 152 °C
11,Nc1ccccc1C(=O)O,144 to 147 °C
12,O=Cc1ccc(-c2ccccc2)cc1,59 to 60 °C
13,O=[N+]([O-])c1c(Cl)c(Cl)c(Cl)c(Cl)c1Cl,142 to 144 °C
14,COC(=O)C1C(OC(=O)c2ccccc2)CC2CCC1N2C (configuration not stated),93.5 to 98 °C
15,COc1ccc2c3c1O[C@H]1[C@@H](O)C=C[C@H]4[C@@H](C2)N(C)CC[C@@]341,155 to 158 °C
16,c1ccc(C2CO2)cc1 (configuration not stated),-37 to -35.6 °C
17,ClC=C(Cl)Cl,-85 to -84.7 °C
18,NCCCCNCCCN,23.5 to 24 °C
19,N#CSCSC#N,105 to 106 °C
20,Cc1cc(C)c(C)c(C)c1,-24 to -23.7 °C
21,O=C(Cc1ccccc1)c1ccccc1,55 to 60 °C
22,c1ccc2cc3ccccc3cc2c1,215 to 218 °C
23,ClCc1ccccc1CCl,55 to 56 °C

row,SMILES,melting point
1,C=Cc1ccc2ccccc2c1,65 to 66 °C
2,O=C(O)CO,77 to 80 °C
3,Cc1ccc(S(=O)(=O)F)cc1,41 to 41.5 °C
4,O=[N+]([O-])C(Br)(CO)CO,127 to 132 °C
5,N#CC(Br)(Br)C(N)=O,124 °C
6,CNC(C)=O,27 to 28 °C
7,CC(=O)OC(OC(C)=O)c1ccc([N+](=O)[O-])o1,90 to 91 °C
8,Nc1ccccc1-c1ccccc1,49 to 51.5 °C
9,CCc1ccc(C)cc1C,-63 to -62.9 °C
10,CCc1c(C)cccc1C,-16.2 to -16 °C
11,Oc1c(Cl)cccc1Cl,65 to 68.5 °C
12,CC12CCC(C(Br)C1=O)C2(C)C (configuration not stated),76 to 77 °C
13,C=CC=C,-113 to -109 °C
14,CCOc1ccc(OCC)cc1,70 to 72 °C
15,N#Cc1ccc(I)cc1,125 to 126 °C
16,C#CCCO,-63.6 to -63 °C
17,Nc1ccccc1C=O,38 to 39 °C
18,O=[N+]([O-])c1ccc(F)cc1,21 to 23 °C
19,CC(=O)c1cc2ccccc2o1,71 to 76 °C
20,O=c1ccc2ccccc2o1,70 to 71 °C
21,c1ccc(-c2ncc[nH]2)cc1,148 to 149 °C
22,Cc1cccc(Cl)c1Cl,4 to 6 °C
23,Cc1c(C2(c3cc(C(C)C)c(O)c(Br)c3C)OS(=O)(=O)c3ccccc32)cc(C(C)C)c(O)c1Br,200 to 201 °C

row,SMILES,melting point
1,C=CCC,-185 °C
2,c1ccc(CSCc2ccccc2)cc1,49 to 49.5 °C
3,COc1cccc(N)c1,-1 to 0 °C
4,COC(=O)c1ccccc1,-15 to -12 °C
5,c1ccc2c(c1)cc1ccc3cccc4ccc2c1c34,176 to 179 °C
6,Cc1c[nH]cn1,51 to 56 °C
7,CCCCCCCCCC(C)O (configuration not stated),0 to 2 °C
8,Cc1cccc(C)c1[N+](=O)[O-],15 to 16 °C
9,CN1CCC(O)CC1,28 to 29 °C
10,CNC(=O)Oc1cccc2c1OC(C)(C)C2,151 to 152 °C
11,c1ccc(/N=N/c2ccccc2)cc1,67 to 69 °C
12,Cc1cc(Cl)ccc1O,47 to 51 °C
13,Cc1ccnc(-c2cc(C)ccn2)c1,174 to 175 °C
14,C=C(C)C(C)C,-157 °C
15,CCC1(c2ccccc2)C(=O)NC(=O)NC1=O,174 to 176 °C
16,CCCCCCC(O)C(=O)O (configuration not stated),69 to 70 °C
17,Cc1cc(C)nc(C)c1,-46 to -43 °C
18,CN(C)Cc1cc(C(C)(C)C)c(O)c(C(C)(C)C)c1,91 to 93.5 °C
19,C=Cc1cccc(C)c1,-86.3 to -82 °C
20,CCC(Br)CBr (configuration not stated),-65.4 to -65 °C
21,C1CN2CCN1CC2,158 to 159 °C
22,CC(C)(Br)C(=O)O,44 to 48.5 °C

# Next, values leading:
row,melting point,SMILES
1,96 to 97 °C,CCNc1ccc([N+](=O)[O-])cc1
2,83 to 84 °C,Oc1ccc(Cc2ccccc2)cc1
3,-116 to -115 °C,CC1CC=CCC1 (configuration not stated)
4,164 to 166 °C,Oc1c(Cl)cc(Cl)c(Cl)c1Cc1c(O)c(Cl)cc(Cl)c1Cl
5,104 to 108 °C,O=C(c1ccc(F)cc1)c1ccc(F)cc1
6,232 to 234 °C,Cc1nc(-c2ccc(-c3nc(C)c(-c4ccccc4)o3)cc2)oc1-c1ccccc1
7,61 to 65 °C,COc1ccc(C=Nc2ccccc2)cc1
8,158 to 159 °C,CN(C)C(=O)Nc1ccc(Cl)c(Cl)c1
9,-54 to -53 °C,CCCCCCCCC
10,169 to 171 °C,O=C(O)c1ccc(O)c(Cl)c1
11,194 to 195 °C,CSc1ccc(C(=O)O)cc1
12,172 to 177 °C,CO[C@@H]1O[C@H](CO)[C@H](O)[C@H](O)[C@H]1O
13,214 to 215 °C,O=c1c(O)c(-c2ccccc2)oc2cc(O)cc(O)c12
14,-36 to -33.2 °C,CCCCCCCO
15,112 to 116 °C,Cc1ccc2[nH]cnc2c1
16,-135 to -134 °C,CCC(C)(C)CC
17,182 to 183 °C,NC(=O)c1ccc(N)cc1
18,-119 to -118 °C,CC=C(C)CCC
19,198 to 199 °C,CN1C(=C(O)Nc2ccccn2)C(=O)c2ccccc2S1(=O)=O
20,35 to 37.5 °C,Nc1ccc2c(c1)CCC2
21,37 to 38 °C,COc1ccccc1C=O
22,-17.4 to -16 °C,Fc1ccc(Br)cc1
23,-161 °C,CC1CC=CC1
24,-97 to -96.5 °C,CC[Si](Cl)(Cl)CC
25,89 to 90 °C,O=C(c1cccs1)c1cccs1

row,melting point,SMILES
1,-138 to -137 °C,CCCC
2,-183 °C,CC
3,103 to 107 °C,COc1cccc(C(=O)O)c1
4,-80 to -79.7 °C,CCCCSCCCC
5,110 to 113 °C,Cc1cc(Cl)nc(Cl)c1C#N
6,45.5 to 46 °C,Nc1ccc(F)c(Cl)c1
7,86 to 87 °C,CC(CC(=O)O)CC(=O)O
8,156 to 161 °C,O=C(O)Cc1c(Cl)ccc(Cl)c1Cl
9,96.5 to 97.8 °C,O=C(O)CCCC(=O)O
10,152 to 153 °C,Cc1cc(C)nc(N)n1
11,228 to 230 °C,COc1ccc(C2CC(=O)c3c(O)cc(O)cc3O2)cc1O (configuration not stated)
12,79.5 to 82 °C,CC(NC(=O)OC(C)(C)C)C(=O)O (configuration not stated)
13,-109 °C,COC(C)(C)C
14,41 to 41.5 °C,Ic1ccc(I)s1
15,-51.3 to -51 °C,CCCCCSCCCCC
16,-75 to -74 °C,CC(C)=C(C)C
17,209 to 211 °C,O=C1c2ccccc2C(=O)c2cc(Cl)ccc21
18,-91 to -90.9 °C,CCC(C)(CC)CC
19,152 to 155 °C,O[Si](c1ccccc1)(c1ccccc1)c1ccccc1
20,358 to 359 °C,O=C(O)c1ccc(C(=O)O)s1
21,225 to 226 °C,O=C(O)c1ccc(O)cc1O
22,44 to 45.5 °C,Cc1csc(N)n1
23,150 to 151 °C,COC(=O)c1c[nH]c2ccccc12
24,235 to 240 °C,CC12C=CC(=O)C=C1CCC1C2C(O)CC2(C)C1CCC2(O)C(=O)CO (configuration not stated)
25,191 to 192 °C,c1ccc(-c2nnc(-c3ccccn3)nc2-c2ccccc2)cc1

row,melting point,SMILES
1,-149 °C,CCC1CC1
2,175 to 176 °C,O=[N+]([O-])c1ccc(O)c(O)c1
3,30 to 31 °C,c1ccc2ocnc2c1
4,51 to 55 °C,c1ccc(CCc2ccccc2)cc1
5,9.5 to 10 °C,Cc1ccnc2ccccc12
6,100 to 105 °C,CC1(C)C(=O)NC(=O)N1CO
7,-42 to -41.5 °C,Fc1ccccc1I
8,-73.2 to -73 °C,CCCCCOC(=O)CCC
9,32 to 33 °C,c1csc(-c2cccs2)c1
10,78 to 80 °C,Nc1ccc(Br)cc1Br
11,-5 to -4.8 °C,CCc1ccc(N)cc1
12,141 to 142 °C,COC(=O)c1ccc(C(=O)OC)cc1
13,-63 to -62.6 °C,CCCCCCOC=O
14,96 to 98 °C,NCCS
15,77 to 78 °C,CC#CC(=O)O
16,89 to 90 °C,ON=C1CCCCC1
17,-7 to -6.5 °C,OCc1cccnc1
18,-32 to -31.6 °C,CCCCCCC(C)O (configuration not stated)
19,136 to 137 °C,O=C(Nc1ccccc1)c1ccccc1O
20,149 to 152 °C,O=C(O)Cc1ccc(O)cc1
21,139 to 140 °C,c1ccc(-c2nnc(-c3ccccc3)o2)cc1
22,15 to 16 °C,CC(C)c1ccccc1O
23,158 to 160 °C,O=C(O)c1c(F)cccc1Cl
24,53 to 56 °C,COc1ccc(/N=N/c2ccccc2)cc1
25,26 to 26.5 °C,c1ccc2cnccc2c1

row,melting point,SMILES
1,118 to 120 °C,c1ccc2c3c([nH]c2c1)CCCC3
2,110 to 114 °C,COC(=O)c1ccc(N)cc1
3,35.5 to 36 °C,O=Cc1ccc([N+](=O)[O-])o1
4,-92 to -91.5 °C,CCCCOC=O
5,191 to 192 °C,NC(=O)c1ccc(Br)cc1
6,118 to 119 °C,OCc1ccc(CO)cc1
7,146 to 148 °C,O=C(O)c1ccccc1[N+](=O)[O-]
8,-29.1 to -27 °C,FC(F)(F)c1ccccc1
9,81 to 83.5 °C,O=C(Cl)c1ccc(C(=O)Cl)cc1
10,30 to 31 °C,CCCCCCCCCCCCCCCC(=O)OC
11,159 to 163 °C,Cc1ccc(C(N)=O)cc1
12,-14 to -13.5 °C,CCc1cc(C)c(C)cc1C
13,-87 to -85 °C,CC(C)CN
14,3 to 3.66 °C,Cc1ccncc1
15,70 to 72.5 °C,CCCCCCCCCCCCCCCCCCCCCCO
16,-102 °C,C=CCCCCCC
17,144 to 146 °C,O=C(c1ccccc1)c1ccc(O)cc1O
18,-23 to -19 °C,CCCCCCN
19,81.5 to 82 °C,COc1cc(C=O)ccc1O
20,-128 to -123 °C,CC=O
21,63 to 66.5 °C,Nc1cccc2cccc(N)c12
22,262 to 263 °C,CC1CC2C3CCC4=CC(=O)C=CC4(C)C3(F)C(O)CC2(C)C1(O)C(=O)CO (configuration not stated)
23,95 to 96 °C,Cc1cccc([N+](=O)[O-])c1N
24,4 to 4.5 °C,Fc1cc(F)c(F)cc1F
